Reference: patent US9487470B2, “4-((substituted phenyl) difluoromethyl) phenoxy carboxylic acid derivative, and preparation method and uses thereof” (Zhejiang Hisun Pharmaceutical Co., Ltd., priority 2012, dated 2016)

What was measured:
[1] = tested on: hyperlipoidemia model of Goldenhamsters (blood plasma TC, TG, HDL-C, LDL-C); assay: Pharmacodynamic test group 3: effects on blood lipid levels of Goldenhamsters in a hyperlipoidemia model; format: in vivo; details: for HDL-C, after administration / LDL-C, after administration / TC, after administration / TG, after administration: 40 mg/kg intragastric, 1 week, high-lipid feed continued, asterisks = P vs before administration; for HDL-C, after administration / LDL-C, after administration / TC, after administration / TG, after administration / HDL-C, before administration / LDL-C, before administration / TC, before administration / TG, before administration: blood plasma, x±s; for effect on HDL-C, in comparison with the results before administration (in words) / effect on LDL-C, in comparison with the results before administration (in words) / effect on TC, in comparison with the results before administration (in words) / effect on TG, in comparison with the results before administration (in words): t test after vs before administration; for HDL-C, before administration / LDL-C, before administration / TC, before administration / TG, before administration: baseline of the group before administration, high-lipid feed 2 weeks, 6 animals
Text: (§1) Animals: 120 male Goldenhamsters, aged 8 weeks, body weight 80-100 g, provided by Vital River Laboratories, Beijing.
Kits: The kits for total cholesterol (TC), triglyceride (TG), and high density lipoprotein cholesterol (HDL-C) were provided by SYSMEX, and the kits for low density lipoprotein cholesterol (LDL-C) were provided by Shanghai Kehua Bio-engineering Co., Ltd.
(§2) Apparatus: SYSMEX Automatic Biochemistry Analyzer, Bechman centrifuge, Setoris balance.
(§3) The animals were acclimatized and fed for 1 week, ad lib, light cycle was 10 h/14 h, and then feeds with high lipid content were fed to the animals (formulation: 0.3% cholesterol, 20% palm oil, and 79.7% basic feeds). The animals were fed for 2 weeks, and were fasted at 4:00 pm of the 14th day (fasted for 16 h). At the 15th day, the animals were anaesthetized with ethyl ether, weighted, and then 0.5 ml blood was collected from vena orbitalis posterior. The blood was anticoagulated with heparin, and was centrifugated at 5000 rpm for 10 min. The blood plasma was taken, and the levels of TC, TG, HDL-C, and LDL-C in blood plasma were determined using automatic biochemistry analyzer.
(§4) During the administration, feeds with high lipid content were continuously fed to the animals. The animals were fed for 1 week, and were fasted at 4:00 pm of the 7th day. At the 8th day, the animals were anaesthetized with ethyl ether, weighted, and then 0.5 ml blood was collected from vena orbitalis posterior. The blood was anticoagulated with heparin, and was centrifugated at 5000 rpm for 10 min. The blood plasma was taken, and the levels of TC, TG, HDL-C, and LDL-C in blood plasma were determined using automatic biochemistry analyzer.
(§5) The results were represented by x±s, and t test was employed for comparing the results obtained before and after administration.

[2] = tested on: hyperlipoidemia model of Goldenhamsters (blood plasma TC, TG, HDL-C, LDL-C); assay: Pharmacological test group 1: effects on blood lipid levels of Goldenhamsters in a hyperlipoidemia model; format: in vivo; details: for HDL-C, after administration / LDL-C, after administration / TC, after administration / TG, after administration: 40 mg/kg intragastric, 1 week, high-lipid feed continued, asterisks = P vs before administration
Text: Animals: 134 male Goldenhamsters, aged 8 weeks, body weight 80-100 g, provided by Vital River Laboratories, Beijing. […] Kits: The kits for total cholesterol (TC), triglyceride (TG), and high density lipoprotein cholesterol (HDL-C) were provided by SYSMEX, and the kits for low density lipoprotein cholesterol (LDL-C) were provided by Shanghai Kehua Bio-engineering Co., Ltd. Apparatus: SYSMEX Automatic Biochemistry Analyzer, Bechman centrifuge, Setoris balance. The animals were acclimatized and fed for 1 week, ad lib, light cycle was 10 h/14 h, and then feeds with high lipid content were fed to the animals (formulation: 0.3% cholesterol, 20% palm oil, and 79.7% basic feeds). The animals were fed for 10 days, and were fasted at 4:00 pm on the 10th day (fasted for 16 h). On the 11th day, the animals were anaesthetized with ethyl ether, weighted, and then 0.5 ml blood was collected from vena orbitalis posterior. The blood was anticoagulated with heparin, and was centrifugated at 5000 rpm for 10 min. The blood plasma was taken, and the levels of TC, TG, HDL-C, and LDL-C in blood plasma were determined using automatic biochemistry analyzer. The animals were acclimatized and fed for 1 week, ad lib, light cycle was 10 h/14 h, and then feeds with high lipid content were fed to the animals (formulation: 0.3% cholesterol, 20% palm oil, and 79.7% basic feeds). The animals were fed for 2 weeks, and were fasted at 4:00 pm on the […] (fasted for 16 h). On the 22nd day, the animals were anaesthetized with ethyl ether, weighted, and then 0.5 ml blood was collected from vena orbitalis posterior. The blood was anticoagulated with heparin, and was centrifugated at 5000 rpm for 10 min. The blood plasma was taken, and the levels of TC, TG, HDL-C, and LDL-C in blood plasma were determined using automatic biochemistry analyzer. […] During the administration, feeds with high lipid content were continuously fed to the animals. The animals were fed for 1 week, and were fasted at 4:00 pm on the 7th day. On the 8th day, the animals were anaesthetized with ethyl ether, weighted, and then 0.5 ml blood was collected from vena orbitalis posterior. The blood was anticoagulated with heparin, and was centrifugated at 5000 rpm for 10 min. The blood plasma was taken, and the levels of TC, TG, HDL-C, and LDL-C in blood plasma were determined using automatic biochemistry analyzer. The results were represented by x±s, and t test was employed for comparing the results obtained before and after administration.

[3] = Solubility in water (remark on the test drugs); format: physicochemical; details: formulated with 20% solutol
[4] = tested on: hyperlipoidemia model of Goldenhamsters (blood plasma TC, HDL-C, LDL-C); assay: Pharmacological test group 2: effects on blood lipid levels of Goldenhamsters in hyperlipoidemia model; format: in vivo; details: for effect on HDL-C, in comparison with the results before administration (in words) / effect on LDL-C, in comparison with the results before administration (in words) / effect on TC, in comparison with the results before administration (in words): t test after vs before administration; for HDL-C, before administration / LDL-C, before administration / TC, before administration: baseline of the group before administration, high-lipid feed 2 weeks, 6 animals
Text: as §1
Kits: The kits for total cholesterol (TC) and high density lipoprotein cholesterol (HDL-C) were provided by SYSMEX, and the kits for low density lipoprotein cholesterol (LDL-C) were provided by Shanghai Kehua Bio-engineering Co., Ltd.
as §2
as §3, with “pm on” for “pm of”, “h). On” for “h). At”, “TC,” for “TC, TG,”
as §4, with “pm on” for “pm of”, “day. On” for “day. At”, “TC,” for “TC, TG,”
as §5

[5] = background statement; cited from earlier work
[6] = 40 mg/kg, t test after vs before administration
[7] = 40 mg/kg intragastric, 1 week, high-lipid feed continued, blood plasma, x±s, asterisks = P vs before administration
[8] = baseline of the group before administration, high-lipid feed, blood plasma, x±s, 6 animals

| Compound | blood lipid-regulating effects (conclusion from table 4) ([1]; 40 mg/kg) | HDL-C, after administration [1] | LDL-C, after administration [1] | TC, after administration [1] | TG, after administration [1] | effect on HDL-C, in comparison with the results before administration (in words) ([1]; 40 mg/kg) | effect on LDL-C, in comparison with the results before administration (in words) ([1]; 40 mg/kg) | effect on TC, in comparison with the results before administration (in words) ([1]; 40 mg/kg) | effect on TG, in comparison with the results before administration (in words) ([1]; 40 mg/kg) | HDL-C, before administration [1] | LDL-C, before administration [1] | TC, before administration [1] | TG, before administration [1] | regulating effects on the levels of blood lipid (conclusion from table 2) ([2]; 40 mg/kg) | HDL-C, after administration ([2]; blood plasma, x±s) | LDL-C, after administration ([2]; blood plasma, x±s) | TC, after administration ([2]; blood plasma, x±s) | TG, after administration ([2]; blood plasma, x±s) | effect on TG, in comparison with the results before administration (in words) [2, 6] | solubility in water [3] | further results |
| --- | --- | --- | --- | --- | --- | --- | --- | --- | --- | --- | --- | --- | --- | --- | --- | --- | --- | --- | --- | --- | --- |
| CC(C)OC(=O)C(C)(C)Oc1ccc(C(F)(F)c2ccccc2)cc1 [HS003-008, Isopropyl 2-(4-(phenyldifluoromethyl)phenoxy)-2-methylpropionate] | excellent blood lipid-regulating effects | 3.4 ± 0.11 | 2.11 ± 0.89 | 10.84 ± 1.83 | 2.49 ± 0.99 | increase | significantly decrease | significantly decrease | significantly decrease | 2.86 ± 0.14 | 3.18 ± 0.81 | 12.85 ± 2 | 3.93 ± 1.09 | tend to the effects of significantly decreasing TG, TC, and LDL-C | 3.46 ± 0.26 | 1.0 ± 0.45 | 9.85 ± 1.48 | 1.22 ± 0.84 | significantly decreases | insoluble | effect on LDL-C, in comparison with the results before administration (in words) [2, 6]: significantly decreases |
| fenofibrate [reference compound] |  |  |  |  |  |  |  |  |  |  |  |  |  |  | 4.11 ± 0.15 | 1.15 ± 0.3 |  | 1.13 ± 0.47 | significantly decreases |  | LDL-C, after administration [4, 7]: 2.45 ± 0.8; effect on HDL-C, in comparison with the results before administration (in words) ([4]; 40 mg/kg): increases; effect on LDL-C, in comparison with the results before administration (in words) ([4]; 40 mg/kg): significantly decrease; effect on TC, in comparison with the results before administration (in words) ([4]; 40 mg/kg): significantly decrease; HDL-C, before administration ([4]; blood plasma, x±s): 1.46 ± 0.29; LDL-C, before administration ([4]; blood plasma, x±s): 4.24 ± 1.51; TC, before administration ([4]; blood plasma, x±s): 13.74 ± 2.71; adverse effects to gastrointestinal tract [5]: significant adverse effects to gastrointestinal tract; effect on HDL-C, in comparison with the results before administration (in words) [2, 6]: increases; HDL-C, before administration [2, 8]: 3.16 ± 0.24; LDL-C, before administration [2, 8]: 1.35 ± 0.25; TG, before administration [2, 8]: 2.39 ± 1 |
| CC(C)OC(=O)C(C)(C)Oc1ccc(C(F)(F)c2ccc(Cl)cc2)cc1 [HS003-004, isopropyl 2-(4-((4-chlorophenyl)difluoromethyl)phenoxy)-2-methylpropionate] | excellent blood lipid-regulating effects | 3.16 ± 0.24 | 1.86 ± 0.78 | 9.49 ± 1.82 | 2.22 ± 1.61 | increases | significantly decreases | significantly decreases | significantly decreases | 2.54 ± 0.22 | 3.54 ± 0.71 | 12.68 ± 1.8 | 3.94 ± 1.07 | tend to the effects of significantly decreasing TG, TC, and LDL-C | 3.7 ± 0.31 | 1.27 ± 0.26 | 9.16 ± 1.22 | 1.30 ± 0.23 | significantly decreases | insoluble | blood lipid-regulating effects (conclusion from table 3) ([4]; 40 mg/kg): excellent blood lipid-regulating effects; HDL-C, after administration [4, 7]: 1.83 ± 0.18; LDL-C, after administration [4, 7]: 1.97 ± 0.66; TC, after administration [4, 7]: 9.86 ± 0.83; therapeutic effect compared with fenofibrate (conclusion from table 3) ([4]; 40 mg/kg, fenofibrate 40 mg/kg): outstanding therapeutic effects, and are superior to fenofibrate; effect on HDL-C, in comparison with the results before administration (in words) ([4]; 40 mg/kg): increases; effect on LDL-C, in comparison with the results before administration (in words) ([4]; 40 mg/kg): significantly decreases; effect on TC, in comparison with the results before administration (in words) ([4]; 40 mg/kg): significantly decreases; HDL-C, before administration ([4]; blood plasma, x±s): 1.61 ± 0.21; LDL-C, before administration ([4]; blood plasma, x±s): 3.26 ± 1.58; TC, before administration ([4]; blood plasma, x±s): 13.82 ± 2.69; therapeutic effect compared with fenofibrate (conclusion from table 4) ([1]; 40 mg/kg, fenofibrate 40 mg/kg): outstanding therapeutic effects, and are superior to fenofibrate; effect on HDL-C, in comparison with the results before administration (in words) [2, 6]: increases; effect on TC, in comparison with the results before administration (in words) [2, 6]: significantly decreases |
